Assay results as given in patent US10233186B2, “Inhibitors of activin receptor-like kinase” (BLUEPRINT MEDICINES CORPORATION, priority 2016, dated 2019).
Where two headings read alike, the source gives them in different places.

How the values were obtained:
human ALK2 R206H = molecular target: T1, human ALK2 R206H (Homo sapiens, UniProt Q04771, R206H); assay: Cell-based ALK2-R206H cell activity assay (Smad1-Ser463/Ser465 phosphorylation by AlphaLISA in HEK293-ALK2-R206H cells)
T1 construct: expressed in transfected cells; host or cells: HEK293 (ATCC CRL1573), lentivirus transduction, blasticidin selection
T1 sequence (Q04771 21-509 R206H): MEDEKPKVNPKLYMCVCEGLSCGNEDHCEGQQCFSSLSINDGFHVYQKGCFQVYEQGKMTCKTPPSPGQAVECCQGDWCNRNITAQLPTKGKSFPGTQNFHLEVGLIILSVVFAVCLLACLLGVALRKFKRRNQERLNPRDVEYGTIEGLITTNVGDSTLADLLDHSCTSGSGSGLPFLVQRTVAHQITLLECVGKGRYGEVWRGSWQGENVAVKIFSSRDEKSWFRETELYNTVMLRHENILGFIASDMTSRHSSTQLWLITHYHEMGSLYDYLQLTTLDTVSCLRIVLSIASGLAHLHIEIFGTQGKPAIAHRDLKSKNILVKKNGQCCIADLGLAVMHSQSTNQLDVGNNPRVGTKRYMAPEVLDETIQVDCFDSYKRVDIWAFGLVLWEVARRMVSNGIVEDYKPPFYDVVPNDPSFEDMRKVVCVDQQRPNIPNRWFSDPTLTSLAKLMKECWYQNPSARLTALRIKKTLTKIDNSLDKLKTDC
Method in brief: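 Stable HEK293 cells expressing C-terminally FLAG-tagged human ALK2 R206H (lentiviral, blasticidin-selected) were treated with compounds in 10-point, 3-fold dilutions from 10 μM or 1 μM top, in duplicate. Smad1 Ser463/Ser465 phosphorylation was read by AlphaLISA.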

[1] = molecular target: T2, ALK2 R206H (GST-tagged mutant ALK2) (Homo sapiens, UniProt Q04771, R206H); assay: ALK binding assay (LANTHASCREEN TR-FRET competitive binding, displacement of Kinase Tracer 178)
T2 construct: purchased Carna Bioscience or ThermoFisher 09-148 or PV6232
T2 sequence (Q04771 21-509 R206H): T1 sequence (Q04771 21-509 R206H)

[2] = read-out: Cell Line (Cell Assay IC50)
[3] = ALK2 R206H, LANTHASCREEN TR-FRET competitive binding, read-out: Binding Assay (IC50)

Row | Compound | IC50 (human ALK2 R206H; [2]) [nM] | IC50 [1, 3] [nM] | IC50 (human ALK2 R206H; Cell Line (Cell Assay IC50)) [nM] | IC50 [1] [nM]
1 | CC(C)N1CCC[C@@H](c2ccc(-c3cc4c(N5CCN(C(=O)OC(CO)CO)CC5)ccnn4c3)cc2)C1 [Compound 837] | 100 to 500 | < 10 | – | –
2 | CC(C)N1CCC(c2ccc(-c3cc4c(N5CCN(C(=O)Nc6ccccc6)CC5)ccnn4c3)cc2)CC1 [Compound 838] | 100 to 500 | < 10 | – | –
3 | COC1(c2ccc(-c3cc4c(N5CCN(C(=O)C6CC6)CC5)ccnn4c3)c(C#N)c2)CCN(C(C)C)CC1 [Compound 839] | < 100 | < 10 | – | –
4 | CC(C)N1CCC[C@@H](c2ccc(-c3cc4c(N5CCN(C(=O)OC6(C#N)COC6)CC5)ccnn4c3)cc2)C1 [Compound 840] | 100 to 500 | < 10 | – | –
5 | O=C(OC1COC1)N1CCN(c2ccnn3cc(-c4ccc(C5(C(F)(F)F)CCNCC5)cc4)cc23)CC1 [Compound 843] | < 100 | < 10 | – | –
6 | COC1(c2ccc(-c3cc4c(N5CCN(C(=O)NC(C)C)CC5)ccnn4c3)cc2)CCN(C2COC2)CC1 [Compound 844] | < 100 | < 10 | – | –
7 | CCOC(=O)N1CCN(c2ccnn3cc(-c4ccc(C5(OCC)CCN(C6COC6)CC5)cn4)cc23)CC1 [Compound 845] | < 100 | < 10 | – | –
8 | COC1(c2ccc(-c3cc4c(N5CCN(C(=O)OC6COC6)CC5)ccnn4c3)nc2)CCN(C(C)C)CC1 [Compound 846] | < 100 | < 10 | – | –
9 | CC(C)N1CCC(c2ccc(-c3cc4c(N5CCN(C(=O)OC(CO)C(=O)O)CC5)ccnn4c3)cc2)CC1 (stereo not drawn) [Compound 847, 3-hydroxy-2-(4-(6-(4-(1-isopropylpiperidin-4-yl)phenyl)pyrrolo[1,2-b]pyridazin-4-yl)piperazine-1-carbonyloxy)propanoic acid] | > 500 | < 10 | – | –
10 | CC(C)N1CC[C@H](OC(F)F)[C@@H](c2ccc(-c3cc4c(N5CCN(C(=O)C6CC6)CC5)ccnn4c3)cc2)C1 [Compound 848] | < 100 | < 10 | – | –
11 | CC(C)N1CC[C@@H](OC(F)F)[C@H](c2ccc(-c3cc4c(N5CCN(C(=O)C6CC6)CC5)ccnn4c3)cc2)C1 [Compound 849] | < 100 | < 10 | – | –
12 | COC1(c2ccc(-c3cc4c(N5CCN(C(=O)NC(C)C)CC5)ccnn4c3)nc2)CCN(C(C)CF)CC1 (stereo not drawn) [Compound 850] | < 100 | < 10 | – | –
13 | CC(C)N1CCC(c2ccc(-c3cc4c(N5CCN(C(=O)Nc6ccccc6F)CC5)ccnn4c3)cc2)CC1 [Compound 851] | 100 to 500 | < 10 | – | –
14 | COC1(c2ccc(-c3cc4c(N5CCN(C(=O)NC(C)C)CC5)ccnn4c3)c(C#N)c2)CCN(C(C)C)CC1 [Compound 852] | < 100 | < 10 | – | –
15 | CC(=O)N1CC(OC(=O)N2CCN(c3ccnn4cc(-c5ccc([C@@H]6CCCN(C(C)C)C6)cc5)cc34)CC2)C1 [Compound 853] | 100 to 500 | < 10 | – | –
16 | CCOC1(c2ccc(-c3cc4c(N5CCN(C(=O)OCCC#N)CC5)ccnn4c3)nc2)CCN(C(C)C)CC1 [Compound 854] | < 100 | < 10 | – | –
17 | CCOC1(c2ccc(-c3cc4c(N5CCN(C(=O)OC6COC6)CC5)ccnn4c3)nc2)CCN(C2CC2)CC1 [Compound 855] | < 100 | < 10 | – | –
18 | CCOC1(c2ccc(-c3cc4c(N5CCN(C(=O)NC(C)C)CC5)ccnn4c3)cc2)CCN(C2COC2)CC1 [Compound 856] | < 100 | < 10 | – | –
19 | CCOC1(c2ccc(-c3cc4c(N5CCN(C(=O)OC6COC6)CC5)ccnn4c3)cc2)CCN(C(C)C)CC1 [Compound 857] | < 100 | < 10 | – | –
20 | CCOC1(c2ccc(-c3cc4c(N5CCN(C(=O)NC(C)C)CC5)ccnn4c3)nc2)CCN(C2COC2)CC1 [Compound 858] | < 100 | < 10 | – | –
21 | CC(C)N1CCC(COC(F)F)(c2ccc(-c3cc4c(N5CCN(C(=O)C6CC6)CC5)ccnn4c3)cc2)CC1 [Compound 859] | < 100 | < 10 | – | –
22 | CCOC1(c2ccc(-c3cc4c(N5CCN(C(=O)NC(C)C)CC5)ccnn4c3)nc2)CCN(C(C)CF)CC1 (stereo not drawn) [Compound 860] | < 100 | < 10 | – | –
23 | CCOC1(c2ccc(-c3cc4c(N5CCN(C(=O)NC(C)C)CC5)ccnn4c3)nc2)CCN(C[C@H](C)F)CC1 [Compound 861] | < 100 | < 10 | – | –
24 | COC1(c2ccc(-c3cc4c(N5CCN(C(=O)OC6COC6)CC5)ccnn4c3)nc2)CCN(C(C)CF)CC1 (stereo not drawn) [Compound 863] | < 100 | < 10 | – | –

Row | Compound | IC50 (human ALK2 R206H; [2]) [nM] | IC50 [1, 3] [nM] | IC50 (human ALK2 R206H; Cell Line (Cell Assay IC50)) [nM] | IC50 [1] [nM]
25 | CCOC1(c2ccc(-c3cc4c(N5CCN(C(=O)O[C@H](C)CF)CC5)ccnn4c3)nc2)CCN(C(C)C)CC1 [Compound 864] | < 100 | < 10 | – | –
26 | CCOC1(c2ccc(-c3cc4c(N5CCN(C(=O)OC[C@H](C)F)CC5)ccnn4c3)nc2)CCN(C(C)C)CC1 [Compound 865] | < 100 | < 10 | – | –
27 | CCOC1(c2ccc(-c3cc4c(N5CCN(C(=O)OC[C@@H](C)F)CC5)ccnn4c3)nc2)CCN(C(C)C)CC1 [Compound 867] | < 100 | < 10 | – | –
28 | CC(C)NC(=O)N1CCN(c2ccnn3cc(-c4ccc([C@H]5CN(C(C)C)CC[C@@H]5OC(F)F)cc4)cc23)CC1 [Compound 868] | < 100 | < 10 | – | –
29 | CC(C)NC(=O)N1CCN(c2ccnn3cc(-c4ccc([C@@H]5CN(C(C)C)CC[C@H]5OC(F)F)cc4)cc23)CC1 [Compound 869] | < 100 | < 10 | – | –
30 | COC1(c2ccc(-c3cc4c(N5CCN(C(=O)[C@H]6C[C@H](C#N)C6)CC5)ccnn4c3)nc2)CCN(C2COC2)CC1 [Compound 870] | < 100 | < 10 | – | –
31 | CCOC1(c2ccc(-c3cc4c(N5CCN(C(=O)[C@H]6C[C@H](C#N)C6)CC5)ccnn4c3)nc2)CCN(C(C)C)CC1 [Compound 871] | < 100 | < 10 | – | –
32 | CCOC1(c2ccc(-c3cc4c(N5CCN(C(=O)OCC(F)F)CC5)ccnn4c3)nc2)CCN(C(C)C)CC1 [Compound 872] | < 100 | < 10 | – | –
33 | COC1(c2ccc(-c3cc4c(N5CCN(C(=O)OC6COC6)CC5)ccnn4c3)c(C#N)c2)CCN(C(C)C)CC1 [Compound 873] | < 100 | < 10 | – | –
34 | COC(=O)C1(c2ccc(-c3cc4c(N5CCN(C(=O)OC6COC6)CC5)ccnn4c3)cc2)CCN(C(C)C)CC1 [Compound 874] | – | – | 100 to 500 | < 10
35 | CCOC1(c2ccc(-c3cc4c(N5CCN(C(=O)OC6COC6)CC5)ccnn4c3)nc2)CCN(C2COC2)CC1 [Compound 875] | < 100 | < 10 | – | –
36 | CCOC1(c2ccc(-c3cc4c(N5CCN(C(=O)O[C@@H]6CCOC6)CC5)ccnn4c3)nc2)CCN(C(C)C)CC1 [Compound 876] | < 100 | < 10 | – | –
37 | CCOC1(c2ccc(-c3cc4c(N5CCN(C(=O)O[C@H]6CCOC6)CC5)ccnn4c3)nc2)CCN(C(C)C)CC1 [Compound 877] | < 100 | < 10 | – | –
38 | CCOC1(c2ccc(-c3cc4c(N5CCN(C(=O)OC6(C)COC6)CC5)ccnn4c3)nc2)CCN(C(C)C)CC1 [Compound 878] | < 100 | < 10 | – | –
39 | CCOC1(c2ccc(-c3cc4c(N5CCN(C(=O)OC6COC6C)CC5)ccnn4c3)nc2)CCN(C(C)C)CC1 (stereo not drawn) [Compound 879] | < 100 | < 10 | – | –
40 | CCOC1(c2ccc(-c3cc4c(N5CCN(C(=O)OC6COC6)CC5)ccnn4c3)nc2)CCN(CC(C)F)CC1 (stereo not drawn) [Compound 880] | < 100 | < 10 | – | –
41 | CCOC1(c2ccc(-c3cc4c(N5CCN(C(=O)OC6COC6)CC5)ccnn4c3)nc2)CCN(C[C@H](C)F)CC1 [Compound 882] | < 100 | < 10 | – | –
42 | COC1(c2ccc(-c3cc4c(N5CCN(C(=O)C6CC6)CC5)ccnn4c3)cc2)CCN([C@@H](C)COC(F)F)CC1 [Compound 883] | < 100 | < 10 | – | –
43 | COC1(c2ccc(-c3cc4c(N5CCN(C(=O)C6CC6)CC5)ccnn4c3)cc2)CCN([C@H](C)COC(F)F)CC1 [Compound 884] | < 100 | < 10 | – | –
44 | COC1(c2ccc(-c3cc4c(N5CCN(C(=O)C6CC6)CC5)ccnn4c3)nc2)CCN([C@H](C)COC(F)F)CC1 [Compound 885] | < 100 | < 10 | – | –
45 | COC1(c2ccc(-c3cc4c(N5CCN(C(=O)C6CC6)CC5)ccnn4c3)nc2)CCN([C@@H](C)COC(F)F)CC1 [Compound 886] | < 100 | < 10 | – | –
46 | CC(C)NC(=O)N1CCN(c2ccnn3cc(-c4ccc(C5(COC(F)F)CCN(C(C)C)CC5)cc4)cc23)CC1 [Compound 887] | < 100 | < 10 | – | –
47 | CC(C)N1CC[C@H](OC(F)F)[C@@H](c2ccc(-c3cc4c(N5CCN(C(=O)OC6COC6)CC5)ccnn4c3)cc2)C1 [Compound 888] | < 100 | < 10 | – | –
48 | CC(C)N1CC[C@@H](OC(F)F)[C@H](c2ccc(-c3cc4c(N5CCN(C(=O)OC6COC6)CC5)ccnn4c3)cc2)C1 [Compound 889] | < 100 | < 10 | – | –
